Test results: patent publication US20250221944A1, “COMPOSITION FOR PREVENTING OR TREATING MULTIPLE MYELOMA COMPRISING NOVEL CHROMANON COMPOUND AS ACTIVE INGREDIENT” (KBLUEBIO INC, priority 2022, published 2025)

What was measured:
[1] = initial acute toxicity evaluation (liver, kidney, cardiac markers); format: in vivo; conditions: rats, 5 mg/kg intravenously (femoral vein), blood 3 hours later
Procedure: As an initial toxicity evaluation of KBB-NX series synthetic compounds, KBB-NX-16 and KBB-NX-20 were injected intravenously into the femoral vein of rats at a dose of 5 mg/kg and blood was collected 3 hours later to test for markers of liver toxicity (marker ALT), nephrotoxicity (BUN, creatinine) and cardiotoxicity (CK-MB, myoglobin).

RPMI8226-GFP-FLUC cells = assay: mouse model of multiple myeloma (RPMI8226-GFP-FLUC, tail vein); format: in vivo, NSG mice; conditions: 5 mg/kg intravenously, 2 days per week for 3 cycles, untreated group all died on day 50
Procedure: A total of 12 male NSG (NOD scid gamma) mice were used. The animals were housed in a semi-specific pathogen free (Semi-SPF) animal house at the Chonnam National University Center for Biomedical Science Convergence at a temperature of 20-24° C., humidity of 40-60%, and a 12-hour light/dark cycle, with 5 animals per cage. Sterile water and feed were provided ad libitum, and all experimental procedures were in accordance with the Animal welfare act and approved by the Institutional Animal Care and Use Committee of Chonnam National University (Approval No.: CNU IACUC-H-2020-36). […]
Mice were injected with RPMI8226-GFP-FLUC cells, and 8 days later, cancer formation was determined using an in vivo imaging system (IVIS) (NightOWL II LB983 NC100, Berthold, Germany). […]
Meanwhile, a multiple myeloma cell line (RPMI8226) was transfected with a puromycin resistance gene and a luciferase-GFP gene using a lentiviral vector at the EF1a promoter site, and the dynamics of MM cells in mice were identified and monitored by an in vivo bioluminescence imaging assay (FIG. 28). The transgenic multiple myeloma cell line, which can be monitored in vivo, was injected 1×10^7 cells/ml through the tail vein of 6-11 week old combined immunodeficient NSG mice to establish a mouse model of multiple myeloma. […]

Row | SMILES | cardiotoxicity (CK-MB, myoglobin) [1] | hepatotoxicity (marker ALT) [1] | nephrotoxicity (BUN, creatinine) [1] | survival after transplantation (RPMI8226-GFP-FLUC cells)
1 | COc1cc(O)cc2c1C(=O)CC(c1ccc(C)s1)O2 (centres unmarked) [KBB-NX-20, 7-hydroxy-5-methoxy-2-(5-methylthiophene-2-yl)chroman-4-one] | did not exhibit significant | did not exhibit significant | did not exhibit significant | 
2 | COc1cc(O)cc(O)c1C(=O)/C=C/c1ccc(O)cc1 [KBB-NX-2, (E)-1-(2,4-dihydroxy-6-methoxyphenyl)-3-(4-hydroxyphenyl)prop-2-en-1-one] |  |  |  | 64 days
3 | Nc1cccc2c1CN(C1CCC(=O)NC1=O)C2=O (centres unmarked) [lenalidomide, 3-(4-amino-1-oxoisoindolin-2-yl)piperidine-2,6-dione, reference compound] |  |  |  | 64 days
4 | COc1cc(O)c(CC=C(C)C)c2c1C(=O)CC(c1ccc(C(C)C)cc1)O2 (centres unmarked) [KBB-NX-16, 7-hydroxy-2-(4-isopropylphenyl)-5-methoxy-8-(3-methylbut-2-en-1-yl)chroman-4-one] | did not exhibit significant | did not exhibit significant | did not exhibit significant | 
